Tests used:
wild-type AR = target: T1, wild-type AR (Homo sapiens, UniProt P10275); assay: Luciferase reporter assay, PC3 cells transfected with wild-type AR; type: cell-based; conditions: in the presence of R1881
T1 construct: Full-length human wild type AR was cloned into pcDNA3.1 expression plasmid; expressed in transfected cells; host or cells: PC3
T1 sequence (P10275 1-920): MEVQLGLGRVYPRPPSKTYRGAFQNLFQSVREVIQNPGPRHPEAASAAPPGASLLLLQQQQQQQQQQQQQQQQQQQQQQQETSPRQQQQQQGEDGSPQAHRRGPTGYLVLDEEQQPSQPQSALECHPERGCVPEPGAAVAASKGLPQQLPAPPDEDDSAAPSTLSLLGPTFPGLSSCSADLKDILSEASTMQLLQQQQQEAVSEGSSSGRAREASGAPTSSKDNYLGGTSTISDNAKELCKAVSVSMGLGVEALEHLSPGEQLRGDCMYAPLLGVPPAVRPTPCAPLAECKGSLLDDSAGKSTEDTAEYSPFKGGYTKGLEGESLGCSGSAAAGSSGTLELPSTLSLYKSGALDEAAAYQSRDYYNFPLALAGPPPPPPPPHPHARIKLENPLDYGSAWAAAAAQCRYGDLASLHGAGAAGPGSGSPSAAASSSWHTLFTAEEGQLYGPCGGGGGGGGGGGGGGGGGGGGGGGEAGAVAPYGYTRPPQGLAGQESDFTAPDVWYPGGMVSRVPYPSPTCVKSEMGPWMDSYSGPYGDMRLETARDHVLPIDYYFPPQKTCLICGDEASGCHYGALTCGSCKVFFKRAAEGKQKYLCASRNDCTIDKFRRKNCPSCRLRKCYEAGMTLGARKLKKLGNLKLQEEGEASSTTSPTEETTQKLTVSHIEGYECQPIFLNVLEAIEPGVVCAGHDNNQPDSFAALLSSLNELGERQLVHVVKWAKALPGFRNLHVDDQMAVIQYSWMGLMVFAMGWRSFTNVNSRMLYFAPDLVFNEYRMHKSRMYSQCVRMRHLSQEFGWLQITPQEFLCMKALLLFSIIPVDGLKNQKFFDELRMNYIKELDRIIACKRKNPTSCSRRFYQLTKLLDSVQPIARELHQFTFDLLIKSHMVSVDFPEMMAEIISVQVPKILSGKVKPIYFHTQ
Method: Full-length human wild type AR was cloned into pcDNA3.1 expression plasmid (Invitrogen, Waltham, MA, USA) with a CMV promoter. The T878A mutant (T878A-AR) was generated with the Quikchange Mutagenesis Kit (Stratagene, San Diego, CA, USA) using hARWT plasmid as a template. Androgen-starved PC3 cells were seeded in 96-well plates (3000 cells/well) in RPMI 1640 + 5% CSS for 24 h followed by transfection with 50 ng of hARWT or hART878A along with 50 ng of ARR3tk-luciferase reporter construct (100 ng total plasmid DNA) and 0.3 µL/well TransIT20/20 transfection reagent (TT2020, Mirus, Madison, Wisconsin, WI, USA) for 48 h. Cells were treated with increasing amounts of test compound (0.1% final DMSO concentration) and 0.1 nM R1881 for 24 h. Cell lysis was carried out with 60 µL 1X passive lysis buffer/well (Promega, Madison, Wisconsin, WI, USA). The luminescence from 20 µL of cell lysate and 50 µL of Luciferase assay reagent (Promega, Madison, Wisconsin, WI, USA) was recorded on a TECAN M200pro plate reader.

Androgen Receptor ABS = target: T2, Androgen Receptor ABS (Rattus norvegicus, UniProt P15207); assay: Androgen (DHT) displacement, Polar Screen Androgen Receptor Competitor Green Assay Kit; type: binding; conditions: fluorescence polarization kit
T2 construct: purchased
T2 sequence (P15207 647-902 limits assumed): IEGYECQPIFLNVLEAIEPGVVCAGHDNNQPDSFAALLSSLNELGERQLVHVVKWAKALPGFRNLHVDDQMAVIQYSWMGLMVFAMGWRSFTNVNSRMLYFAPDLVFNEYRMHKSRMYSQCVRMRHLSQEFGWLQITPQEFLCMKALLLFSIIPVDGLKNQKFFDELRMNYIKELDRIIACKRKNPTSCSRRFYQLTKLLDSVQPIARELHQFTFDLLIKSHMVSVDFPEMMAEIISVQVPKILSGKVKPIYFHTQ
Method: Androgen displacement was assessed with the Polar Screen Androgen Receptor Competitor Green Assay Kit as per the instructions of the manufacturer.

## COc1c(F)cccc1-c1csc(N2CCOCC2)n1 [VPC14368, 4-(4-(3-fluoro-2-methoxyphenyl)thiazol-2-yl)morpholine]
wild-type AR
  AR transcription, wild-type AR: inhibited by VPC14368 in a dose-dependent manner
Androgen Receptor ABS
  Androgen Displacement (Yes/No): Yes
